Earlier results in paper PMC9762682, “Tocotrienols: Exciting Biological and Pharmacological Properties of Tocotrienols and Naturally Occurring Compounds, Part II” (Annals of clinical case reports, 2022).
Where a name gives a salt, the structure may show the parent alone.

Experiments:
Pancreas cancer cells = system: Pancreas cancer cells; set-up: method as in PMID 29606130; value at effective dose: unit not given here; conditions: for effective dose / percentage of control at effective dose / value at effective dose: 48 h
Breast cancer cells = system: Breast cancer cells; set-up: method as in PMID 29606130; value at effective dose: unit not given here;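 for IC50: anti-proliferation of cancer cells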
Melanoma cells = system: Melanoma cells; set-up: method as in PMID 29606130
T-cells (Jurkat) = system: T-cells (Jurkat); set-up: method as in PMID 29606130; value at effective dose: unit not given here
Hela cells = system: Hela cells; set-up: method as in PMID 29606130; value at effective dose: unit not given here; conditions: for effective dose / percentage of control at effective dose / value at effective dose: 48 h;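 for IC50: anti-proliferation of cancer cells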
Prostate cancer cells = system: Prostate cancer cells; set-up: method as in PMID 29606130; value at effective dose: scale not given here; conditions: for effective dose / percentage of control at effective dose / value at effective dose: 48 h;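 for IC50: anti-proliferation of cancer cells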
Liver cancer cells = system: Liver cancer cells; set-up: method as in PMID 29606130; value at effective dose: unit not given here; conditions: for effective dose / percentage of control at effective dose / value at effective dose: 48 h
Lung cancer cells = system: Lung cancer cells; set-up: method as in PMID 29606130; value at effective dose: unit not given here
B-Lymphocyte cells = system: B-Lymphocyte cells; set-up: method as in PMID 29606130; value at effective dose: unit not given here;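 for IC50: anti-proliferation of cancer cells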

SMILES: O=C1C[C@@H]2[C@@H](CO)[C@H](O)C[C@@H]2O1 [(−) Corey Lactone]
- IC50 (Pancreas cancer cells): 80 µM
- percentage of control at IC50 dose (Pancreas cancer cells): 54%
- effective dose (Pancreas cancer cells): 40 µM
- percentage of control at effective dose (Pancreas cancer cells): 58%
- value at effective dose (Pancreas cancer cells): 30.7 ± 1.2
- IC50 (Breast cancer cells): 80 µM
- effective dose (Breast cancer cells): 40 µM
- percentage of control at IC50 dose (Breast cancer cells): 55%
- percentage of control at effective dose (Breast cancer cells): 77%
- value at effective dose (Breast cancer cells): 17.7 ± 3.2
- IC50 (Melanoma cells): 80 µM
- effective dose (Melanoma cells): 40 µM
- percentage of control at IC50 dose (Melanoma cells): 46%
- percentage of control at effective dose (Melanoma cells): 62%
- IC50 (T-cells (Jurkat)): 80 µM
- effective dose (T-cells (Jurkat)): 40 µM
- percentage of control at IC50 dose (T-cells (Jurkat)): 29%
- percentage of control at effective dose (T-cells (Jurkat)): 64%
- value at effective dose (T-cells (Jurkat)): 280.3 ± 10.2
- effective dose (Hela cells): 80 µM
- percentage of control at effective dose (Hela cells): 66%
- value at effective dose (Hela cells): 36.0 ± 5.6
- IC50 (Prostate cancer cells): 80 µM
- percentage of control at IC50 dose (Prostate cancer cells): 51%
- effective dose (Prostate cancer cells): 40 µM
- percentage of control at effective dose (Prostate cancer cells): 60%
- value at effective dose (Prostate cancer cells): 23.3 ± 2.1
- IC50 (Liver cancer cells): 80 µM
- percentage of control at IC50 dose (Liver cancer cells): 56%
- effective dose (Liver cancer cells): 80 µM
- percentage of control at effective dose (Liver cancer cells): 56%
- value at effective dose (Liver cancer cells): 31.7 ± 2.1
- IC50 (Lung cancer cells): 80 µM
- effective dose (Lung cancer cells): 40 µM
- percentage of control at IC50 dose (Lung cancer cells): 44%
- percentage of control at effective dose (Lung cancer cells): 64%
- value at effective dose (Lung cancer cells): 17.3 ± 3.8
- IC50 (B-Lymphocyte cells): 40 µM
- effective dose (B-Lymphocyte cells): 20 µM
- percentage of control at IC50 dose (B-Lymphocyte cells): 37%
- percentage of control at effective dose (B-Lymphocyte cells): 59%
- value at effective dose (B-Lymphocyte cells): 5.3 ± 1.5

SMILES: N=C(N)NC(=O)c1nc(Cl)c(N)nc1N [Amiloride-HCL]
- effective dose (Pancreas cancer cells): 80 µM
- percentage of control at effective dose (Pancreas cancer cells): 69%
- value at effective dose (Pancreas cancer cells): 30.7 ± 1.2
- IC50 (Breast cancer cells): 40 µM
- effective dose (Breast cancer cells): 20 µM
- percentage of control at IC50 dose (Breast cancer cells): 52%
- percentage of control at effective dose (Breast cancer cells): 61%
- value at effective dose (Breast cancer cells): 14.0 ± 5.3
- effective dose (Melanoma cells): 40 µM
- percentage of control at effective dose (Melanoma cells): 90%
- effective dose (T-cells (Jurkat)): 20 µM
- percentage of control at effective dose (T-cells (Jurkat)): 38%
- value at effective dose (T-cells (Jurkat)): 132.7 ± 2.1
- IC50 (Hela cells): 10 µM
- percentage of control at IC50 dose (Hela cells): 51%
- effective dose (Hela cells): 80 µM
- percentage of control at effective dose (Hela cells): 36%
- value at effective dose (Hela cells): 19.7 ± 1.5
- effective dose (Prostate cancer cells): 80 µM
- percentage of control at effective dose (Prostate cancer cells): 70%
- value at effective dose (Prostate cancer cells): 27.0 ± 4.6
- percentage of control at IC50 dose (Liver cancer cells): 56%
- effective dose (Liver cancer cells): 40 µM
- percentage of control at effective dose (Liver cancer cells): 65%
- value at effective dose (Liver cancer cells): 36.7 ± 2.5
- effective dose (Lung cancer cells): 40 µM
- percentage of control at effective dose (Lung cancer cells): 86%
- value at effective dose (Lung cancer cells): 23.3 ± 2.5
- IC50 (B-Lymphocyte cells): 40 µM
- effective dose (B-Lymphocyte cells): 20 µM
- percentage of control at IC50 dose (B-Lymphocyte cells): 48%
- percentage of control at effective dose (B-Lymphocyte cells): 56%
- value at effective dose (B-Lymphocyte cells): 5.0 ± 1.0

SMILES: CC1(C)S[C@@H]2[C@H](NC(=O)[C@H](N)c3ccccc3)C(=O)N2[C@H]1C(=O)O [Ampicillin]
- effective dose (Pancreas cancer cells): 80 µM
- percentage of control at effective dose (Pancreas cancer cells): 74%
- value at effective dose (Pancreas cancer cells): 35.3 ± 5.0
- effective dose (Breast cancer cells): 40 µM
- percentage of control at effective dose (Breast cancer cells): 74%
- value at effective dose (Breast cancer cells): 16.7 ± 6.1
- effective dose (Melanoma cells): 20 µM
- percentage of control at effective dose (Melanoma cells): 70%
- effective dose (T-cells (Jurkat)): 20 µM
- percentage of control at effective dose (T-cells (Jurkat)): 94%
- value at effective dose (T-cells (Jurkat)): 450.3 ± 15.6
- effective dose (Hela cells): 80 µM
- percentage of control at effective dose (Hela cells): 88%
- value at effective dose (Hela cells): 47.7 ± 5.5
- IC50 (Prostate cancer cells): 5 µM
- percentage of control at IC50 dose (Prostate cancer cells): 50%
- effective dose (Prostate cancer cells): 20 µM
- percentage of control at effective dose (Prostate cancer cells): 41%
- value at effective dose (Prostate cancer cells): 15.0 ± 1.0
- effective dose (Liver cancer cells): 40 µM
- percentage of control at effective dose (Liver cancer cells): 88%
- value at effective dose (Liver cancer cells): 70.3 ± 4.2
- effective dose (Lung cancer cells): 80 µM
- percentage of control at effective dose (Lung cancer cells): 85%
- value at effective dose (Lung cancer cells): 21.3 ± 1.5
- effective dose (B-Lymphocyte cells): 10 µM
- percentage of control at effective dose (B-Lymphocyte cells): 66%
- value at effective dose (B-Lymphocyte cells): 44.7 ± 5.1

SMILES: O=C1O[C@H]([C@@H](O)CO)C(O)=C1O [Ascorbic Acid]
- effective dose (Pancreas cancer cells): 80 µM
- percentage of control at effective dose (Pancreas cancer cells): 71%
- value at effective dose (Pancreas cancer cells): 42.3 ± 2.5
- effective dose (Breast cancer cells): 40 µM
- percentage of control at effective dose (Breast cancer cells): 73%
- value at effective dose (Breast cancer cells): 15.0 ± 1.7
- effective dose (Melanoma cells): 80 µM
- percentage of control at effective dose (Melanoma cells): 81%
- effective dose (T-cells (Jurkat)): 40 µM
- percentage of control at effective dose (T-cells (Jurkat)): 89%
- value at effective dose (T-cells (Jurkat)): 451.3 ± 32.4
- effective dose (Hela cells): 80 µM
- percentage of control at effective dose (Hela cells): 64%
- value at effective dose (Hela cells): 21.0 ± 0.1
- effective dose (Prostate cancer cells): 80 µM
- percentage of control at effective dose (Prostate cancer cells): 81%
- value at effective dose (Prostate cancer cells): 29.3 ± 2.1
- effective dose (Liver cancer cells): 80 µM
- percentage of control at effective dose (Liver cancer cells): 90%
- value at effective dose (Liver cancer cells): 74.3 ± 2.5
- IC50 (Lung cancer cells): 10 µM
- effective dose (Lung cancer cells): 20 µM
- percentage of control at IC50 dose (Lung cancer cells): 49%
- percentage of control at effective dose (Lung cancer cells): 46%
- value at effective dose (Lung cancer cells): 15.0 ± 4.4
- effective dose (B-Lymphocyte cells): 20 µM
- percentage of control at effective dose (B-Lymphocyte cells): 62%
- value at effective dose (B-Lymphocyte cells): 17.3 ± 2.5
